Earlier results, collected in patent EP2738198A1, “Enzymatic synthesis of polyamide in aqueous mini-emulsion” (Henkel AG & Co. KGaA, priority 2012, dated 2014).

Settings: alcohol CnH2n+1OH corresponding to the alkyl group of the di(alkyl) sebacate, data from Handbook of Chemistry and Physics 86th Edition

Compound	Partial Solubility of CnH2n+1OH in water
CCO [n 2]	∞
CCCCCCO [n 6]	7.9 g/L
CCCCCCCCO [n 8]	0.3 g/L
